Source: patent publication US8507010B2, “Compositions comprising quinazoline derivatives” (Shanghai Allist Pharmaceuticals, Inc., priority 2008, dated 2013)

What was measured:
[1] = Study of hygroscopicity (92.5% humidity); type: physicochemical; conditions: p-toluenesulfonate; for stability in highly humid surroundings (in words): 92.5% humidity for 1 month; for Purity (%): 92.5% humidity
in vivo = conditions: male, SD, rat
Protocol: Intragastric administration (ig): 16 healthy SD rats (Shanghai Super-B&K Laboratory Animal Corp. Ltd., grade SPF), male, weighted 200-250 g, randomly divided into four groups, were each administered intragastrically with a drug: the compound prepared according to Example 1 (21.68 mg/kg), crystalline form A, crystalline form B, or crystalline form C (30 mg/kg) of p-toluenesulfonate of said compound. The blood samples were collected at 0.5 h, 1.0 h, 1.5 h, 2.0 h, 3.0 h, 5.0 h, 7.0 h, 9.0 h, 12 h, and 24 h after administration, which were then isolated to prepare the plasma. The concentrations of the drugs in the plasma were determined by means of liquid phase chromatography/tandem mass spectrometer (Agilent 1200LC/6410B), and the concentration-time curve was obtained.

[2] = Study of stability at high temperature (60° C.); type: physicochemical; conditions: p-toluenesulfonate; for Purity (%): 60° C.; for thermal stability (in words): stored at 60° C. for 1 month
Study of light stability = type: physicochemical; conditions: p-toluenesulfonate; for light stability (in words): illumination 45001×±5001× for 1 month; for Purity (%): illumination 45001×±5001×
Description: The purity of the crystalline form A was detected at day 0, day 10 and day 30, thereby deducing light stability of crystalline form A. The light stability of each of crystalline forms B and C is obtained by the same approach.

[3] = system: human ovarian cancer SKOV-3; experiment: Tumor-inhibitory effect on human ovarian cancer SKOV-3 grafted to a BALB/cA nude mouse; type: in vivo; conditions: for RTV: RTV=Vt/V0; for Volume of tumor (mm^3) V0: prior to the administration; for inhibitory effect on the tumor (in words): SKOV-3 grafted to BALB/cA nude mouse, high expression of erbB-2, p-toluenesulfonate
Protocol: A SKOV-3 tumor tissue in vigorous growth period was selected and incised into uniform pieces with the size of about 1.5 mm^3, which was grafted subcutaneously to the right armpit of a BALB/cA nude mouse (Shanghai Institute of Materia Medica, Chinese Academy of Sciences, grade SPF) with a trocar under sterile conditions. The diameters of the grafted tumors on the nude mouse were measured with a vernier caliper. The animals were grouped randomly when the tumors grew to a size of 80 to 100 mm^3. The tested animal groups were intragastrically administered through mouth as mentioned above once a day for 3 consecutive weeks. The positive control drug MMC (Mitomycin) was intravenously administered once on the first day with a dose of 5 mg/kg (0.9% sterile sodium chloride solution). The negative control group was administered with 0.5% CMC-Na (Carboxymethyl Cellulose-Sodium) with a dose of 0.2 mL/per mouse. The long axis (a) and the short axis (b) of the tumors were measured twice every week and the nude mice were weighed at the same time. According to the formula V=ab^2/2, the volume (mm^3) of the tumor could be calculated. Relative tumor volume (RTV) was calculated from the measurement result (according to the formula: RTV=Vt/V0, wherein V0 is the tumor volume measured upon the grouping time of administration, and Vt is the tumor volume measured each time). The relative tumor proliferation rate T/C(%) was chosen as the index of evaluation of anti-tumor activity, by the formula: T/C(%)=(TRTV/CRTV)×100 TRTV: RTV of the treated group; CRTV: RTV of the negative control group
(§1) Human epidermoid squamous carcinoma A431 grafted to BALB/cA nude mouse is an animal model having high expression of EGFR (erbB-1), and human ovarian cancer SKOV-3 grafted to BALB/cA nude mouse is an animal model having high expression of erbB-2.

[4] = system: human epidermoid squamous cancer cell A431; experiment: Tumor-inhibitory effect on human epidermoid squamous cancer cell A431 grafted to a BALB/cA nude mouse; type: in vivo; conditions: for Tumor-inhibitory rate % / Weight of animals (g) (tumor-off) / Weight of tumor (g) x ± SD: 13 successive days, 23 days after grafting; for inhibitory effect on the tumor (in words): A431 grafted to BALB/cA nude mouse, high expression of EGFR (erbB-1), p-toluenesulfonate
Protocol: A well-developed solid tumor A431 was selected and incised into several uniform pieces with the size of 2-3 mm under sterile conditions, with one piece being grafted subcutaneously to the right armpit of each of the BALB/cA nude mice using a trocar. 7 days after the grafting, the mice were grouped randomly and were intragastrically administrated through mouth for 13 successive days. The long axis (a) and the short axis (b) of the tumors were measured with a vernier caliper every 4 days. According to the formula V=ab^2/2, the volume of the tumor (mm^3) could be calculated. The tested animals were neck-off killed 23 days after the grafting, and anatomized to obtain the tumors. The tumors were weighed, and the tumor inhibition rate was calculated.
as §1

[5] = Test on the drug absorption in SD rat, intravenous injection (iv); type: in vivo; conditions: male, 5 mg/kg, plasma
Protocol: Intravenous injection (iv): 4 healthy SD rats, male, weighted 200-250 g, were intravenously administered with p-toluenesulfonate of the compound of Example 1 (5 mg/kg). The blood samples were collected at 5 min, 15 min, 0.5 h, 1.5 h, 2.0 h, 3.0 h, 4.0 h, 5.0 h and 7.0 h after administration, which were then isolated to prepare the plasma. The concentrations of the drugs in the plasma were determined by means of liquid phase chromatography/tandem mass spectrometer and the concentration-time curve was obtained.

[6] = 5 mg/kg iv once on the first day
[7] = 50 mg/kg ig once a day for 3 weeks
[8] = 100 mg/kg ig once a day for 3 weeks
[9] = 200 mg/kg ig once a day for 3 weeks
[10] = listed as p-toluenesulfonate of N-{-4-[3-chloro-4-(3-fluoro-benzyloxy)phenylamino]quinazol

C=CC(=O)Nc1ccc2ncnc(Nc3ccc(OCc4cccc(F)c4)c(Cl)c3)c2c1.Cc1ccc(S(=O)(=O)O)cc1 [Crystalline form B, N-{4-[3-chloro-4-(3-fluoro-benzyloxy)phenylamino]quinazolin-6-yl}-acrylamide p-toluenesulfonate]
stability in highly humid surroundings (in words) [1]: very stable
Purity (%) ([1]; day 0): 99.26%
Purity (%) ([1]; day 10): 99.25%
Purity (%) ([1]; day 30): 99.24%
absolute bioavailability (in vivo): 8.76%
AUC(0-t) (in vivo; po, 30 mg/kg): 978 ng·h/mL
Cmax (in vivo; po, 30 mg/kg): 253 ng/mL
T1/2 (in vivo; po, 30 mg/kg): 1.23 h
Tmax (in vivo; po, 30 mg/kg): 1.25 h
Purity (%) ([2]; day 0): 99.26%
Purity (%) ([2]; day 10): 99.21%
Purity (%) ([2]; day 30): 99.11%
thermal stability (in words) [2]: excellent thermal stability
light stability (in words) (Study of light stability): excellent light stability
Purity (%) (Study of light stability; day 0): 99.26%
Purity (%) (Study of light stability; day 10): 99.26%
Purity (%) (Study of light stability; day 30): 99.24%

CO[C@@]12[C@H](COC(N)=O)C3=C(C(=O)C(C)=C(N)C3=O)N1C[C@@H]1N[C@@H]12 [MMC, Mitomycin, reference compound]
RTV [3, 6]: 3.1 ± 0.5
T/C (%) ([3]; 5 mg/kg iv once on the first day, T/C=(TRTV/CRTV)×100): 32.0%
Volume of tumor (mm^3) V21 ([3]; 5 mg/kg iv once on the first day, after 3 weeks): 258 ± 77 mm^3
Volume of tumor (mm^3) V0 [3, 6]: 83 ± 13 mm^3

C=CC(=O)Nc1ccc2ncnc(Nc3ccc(OCc4cccc(F)c4)c(Cl)c3)c2c1.Cc1ccc(S(=O)(=O)O)cc1 [Crystalline form C, N-{4-[3-chloro-4-(3-fluoro-benzyloxy)phenylamino]quinazolin-6-yl}-acrylamide p-toluenesulfonate]
stability in highly humid surroundings (in words) [1]: quite stable
Purity (%) ([1]; day 0): 99.03%
Purity (%) ([1]; day 10): 98.27%
Purity (%) ([1]; day 30): 98.08%
absolute bioavailability (in vivo): 5.17%
Tmax (in vivo; po, 30 mg/kg): 2.25 h
AUC(0-t) (in vivo; po, 30 mg/kg, AUC0-t): 577 ng·h/mL
Cmax (in vivo; po, 30 mg/kg, Cmax): 161 ng/mL
half-life (in vivo; po, 30 mg/kg, T1/2): 1.27 h
Purity (%) ([2]; day 0): 99.03%
Purity (%) ([2]; day 10): 97.08%
Purity (%) ([2]; day 30): 97.55%
thermal stability (in words) [2]: good thermal stability
light stability (in words) (Study of light stability): good light stability
Purity (%) (Study of light stability; day 0): 99.03%
Purity (%) (Study of light stability; day 10): 98.54%
Purity (%) (Study of light stability; day 30): 98.42%

C=CC(=O)Nc1ccc2ncnc(Nc3ccc(OCc4cccc(F)c4)c(Cl)c3)c2c1.Cc1ccc(S(=O)(=O)O)cc1 [Crystalline form A, N-{4-[3-chloro-4-(3-fluoro-benzyloxy)phenylamino]quinazolin-6-yl}-acrylamide p-toluenesulfonate]
stability in highly humid surroundings (in words) [1]: very stable
Purity (%) ([1]; day 0): 98.64%
Purity (%) ([1]; day 10): 98.62%
Purity (%) ([1]; day 30): 98.62%
bioavailability (in vivo; absolute bioavailability): 8.75%
AUC(0-t) (in vivo; po, 30 mg/kg): 977 ng·h/mL
Cmax (in vivo; po, 30 mg/kg): 187 ng/mL
T1/2 (in vivo; po, 30 mg/kg): 1.49 h
Tmax (in vivo; po, 30 mg/kg): 2.83 h
T/C (%) [3, 7]: 53.0%
RTV [3, 7]: 5.1 ± 1.7
Volume of tumor (mm^3) V21 ([3]; 50 mg/kg ig once a day, after administration for consecutive 3 weeks): 421 ± 89 mm^3
Volume of tumor (mm^3) V0 ([3]; 50 mg/kg ig): 79 ± 28 mm^3
T/C (%) [3, 8]: 45.0%
RTV [3, 8]: 4.3 ± 1.3
Volume of tumor (mm^3) V21 ([3]; 100 mg/kg ig once a day, after administration for consecutive 3 weeks): 345 ± 88 mm^3
Volume of tumor (mm^3) V0 ([3]; 100 mg/kg ig): 87 ± 41 mm^3
T/C (%) [3, 9]: 36.9%
RTV [3, 9]: 3.5 ± 0.8
Volume of tumor (mm^3) V21 ([3]; 200 mg/kg ig once a day, after administration for consecutive 3 weeks): 303 ± 72 mm^3
Volume of tumor (mm^3) V0 ([3]; 200 mg/kg ig): 86 ± 13 mm^3
inhibitory effect on the tumor (in words) [3]: significant inhibitory effect on the tumor
Tumor-inhibitory rate % ([4]; 25 mg/kg ig): 29.99%
Weight of animals (g) (tumor-off) ([4]; 25 mg/kg ig): 21.58 ± 2.18 g
Weight of tumor (g) x ± SD ([4]; 25 mg/kg ig): 0.79 ± 0.20 g
Tumor-inhibitory rate % ([4]; 50 mg/kg ig): 38.67%
Weight of animals (g) (tumor-off) ([4]; 50 mg/kg ig): 22.87 ± 3.96 g
Weight of tumor (g) x ± SD ([4]; 50 mg/kg ig): 0.69 ± 0.17 g
Tumor-inhibitory rate % ([4]; 100 mg/kg ig): 43.63%
Weight of animals (g) (tumor-off) ([4]; 100 mg/kg ig): 22.13 ± 1.83 g
Weight of tumor (g) x ± SD ([4]; 100 mg/kg ig): 0.64 ± 0.23 g
Purity (%) ([2]; day 0): 98.64%
Purity (%) ([2]; day 10): 98.64%
Purity (%) ([2]; day 30): 98.64%
thermal stability (in words) [2]: excellent thermal stability
light stability (in words) (Study of light stability): good light stability
Purity (%) (Study of light stability; day 0): 98.64%
Purity (%) (Study of light stability; day 10): 98.16%
Purity (%) (Study of light stability; day 30): 97.24%

C=CC(=O)Nc1ccc2ncnc(Nc3ccc(OCc4cccc(F)c4)c(Cl)c3)c2c1.Cc1ccc(S(=O)(=O)O)cc1 [p-toluene sulfonate, N-{4-[3-chloro-4-(3-fluoro-benzyloxy)phenylamino]quinazolin-6-yl}-acrylamide p-toluenesulfonate]
AUC(0-t) [5]: 1860 ng·h/mL
Cmax [5]: 1740 ng/mL
Tmax [5]: 4.98 min
half-life [5]: 1.55 h
inhibitory effect on the tumor (in words) [3, 10]: remarkable inhibitory effect on tumor growth
inhibitory effect on the tumor (in words) ([4]; listed as p-toluenesulfonate of N-{-4-[3-chloro-4-(3-fluoro-benzyloxy)phenylamino]-quinazo): significant inhibitory effect on the tumor
inhibitory effect on the tumor (in words) [4, 10]: remarkable inhibitory effect on tumor growth
